Measurements reported in the METLIN SMRT retention time set (Domingo-Almenara et al. 2019).

Test: gradient 5% acetonitrile 3 min, to 50% in 2 min, to 85% in 15 min, held 3 min, 100 µL/min
Settings: column: Zorbax Extend-C18 2.1 x 50 mm; eluents: water / acetonitrile, 0.1% formic acid
Procedure, shortened: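 A Zorbax Extend-C18 column (2.1 × 50 mm, 1.8 μm) run at 100 μL/min with water and acetonitrile, both containing 0.1% formic acid, separated mixtures of ~100 pure standards. The HPLC was coupled to a quadrupole time-of-flight mass spectrometer operated in positive and negative ionization mode, with dead and dwell volumes of 40 μL and 900 μL. Each retention time was taken from a computationally picked adduct peak that was then manually inspected.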

SMILES	RP-LC retention time [s]
Clc1ccc(Cl)c(-c2ccc(CNCC3CCCO3)o2)c1 (centres undefined)	699
O=C(CN1CCN(Cc2ccccc2)C1=O)N1CCN(c2ccccc2F)CC1	824
O=C(c1ccsc1)N1CCCCC1c1nncn1CC1CC1 (centres undefined)	681
O=C(NCCc1csc(-c2cccs2)n1)C1CCN(C(=O)CCc2ccccc2)CC1	839
COc1ccc(Cn2nnc3cc(C(=O)Nc4cc(C)on4)ccc32)cc1	817
CCCCOC(=O)CSc1nnc(-c2ccc(Br)cc2)o1	1190
COCCn1cc(C(=O)NCc2c(F)cccc2F)c2nn(-c3ccccc3)c(=O)c-2c1	809
O=C(CSc1nnc(-c2ccc(Cl)cc2)o1)Nc1nccs1	867
CN1c2cc(C(=O)NC3CCCCC3)ccc2C(=O)N2CCCCC21 (centres undefined)	824
O=C(NCc1ccco1)c1ccc2c(c1)N(Cc1ccccc1)C(=O)CO2	942
CC(=O)N1C[C@@H]2CCCN3CCC[C@@H]([C@H]23)[C@H]1CCCC(=O)NCCCN(C)C1CCCCC1	547
Cc1nc(-c2cn(C)c3ncccc23)sc1C(=O)Nc1cc(F)cc(F)c1	1050
CC1(C(=O)NC2CCCCCC2)CN(S(C)(=O)=O)CC(=O)N1c1cccc(Cl)c1 (centres undefined)	882
CCOC(=O)C1CCN(C(=O)c2nc(N3CCCC3)c3c(C)cc(C)nc3n2)CC1	631
Cc1cccc(Sc2nccnc2N2CCCC(C(=O)N3CCN(c4ccccc4F)CC3)C2)c1 (centres undefined)	1280
Cc1ccc(-c2noc(Cn3c(=O)n(Cc4ccccc4Cl)c(=O)c4sccc43)n2)cc1C	1290
COC1CCC12CCN(C(=O)Nc1ccccc1)CC2 (centres undefined)	782
COC(=O)c1cccc(N2C=C(C#N)S(=O)(=O)c3c(F)cccc32)c1	847
COC(=O)COC(=O)c1cn(-c2ccc(OC)cc2)c(=O)c2ccccc12	924
Cc1cc(NC(=O)Cn2nc(C(=O)N3CCOCC3)c3ccccc32)ccc1Br	862
CC1(C)Oc2ccc(C#N)cc2[C@@H](OC2=CC(=O)CC2)[C@@H]1O	746
CCOC(=O)c1cc(C2CC2)nc2c1c(=O)n(Cc1ccc(Cl)cc1)c(=O)n2C	1260
Clc1ccc(Cl)c(-c2ccc(CNCc3ccccn3)o2)c1	733

SMILES	RP-LC retention time [s]
Cc1cc(C)c(NC(=O)Cn2cnc3nc(N4CCCC(C(=O)NC5CC5)C4)sc3c2=O)c(C)c1 (centres undefined)	723
Cc1ccc(NC(=O)N2CCC(n3cnc4ccc(F)cc4c3=O)CC2)c(C)c1	790
Cc1ccc(C(=O)NCCc2nc3cccnc3n2C(C)C)cc1C	695
CCc1ccc(CN2CCn3c(nn(C)c3=O)C2)cc1	689
Cc1oc(-c2ccn[nH]2)cc1S(=O)(=O)Nc1ccc(F)c(Cl)c1	852
CCCCC(=O)Nc1nc(-c2ccc3c(c2)N(CC)C(=O)CO3)cs1	932
CCOc1cc(C(=O)Nc2ccc(-c3cn4cccnc4n3)cc2)cc(OCC)c1OCC	759
O=C(NC1CCCCC1)N1CCC(OC2CCN(Cc3ccccc3)CC2)CC1	663
Cc1nn(-c2ccc(F)cc2)c(-n2cccc2)c1C(=O)N1CCN(c2ccccn2)CC1	650
Cc1cc(C)cc(-n2ccc(=O)c(-c3nc(-c4ccc5c(c4)OCO5)no3)n2)c1	996
CSc1ccc(CNC(=O)C2CCCN(c3ccnc(-c4ccc(F)cc4)n3)C2)cc1 (centres undefined)	728
CCCNc1cc(N2CCC(CCC(=O)Nc3ccc4c(c3)OCCO4)CC2)ncn1	682
Cc1cccc(C)c1OCC(=O)Nc1nc(-c2ccccc2)cs1	1180
Cc1nnc2c(S(=O)(=O)N(Cc3ccccc3)c3cc(F)cc(F)c3)cccn12	865
Cc1[nH]c(C(=O)N2CCC(CC(=O)NC3CCCCCC3)CC2)c(C)c1C(=O)OC(C)C	886
CCC(=O)Nc1nc(-c2ccc3c(c2)N(CC)C(=O)CO3)c(C)s1	812
CS(=O)(=O)c1ccc(NCCCC(=O)O)c([N+](=O)[O-])c1	624
COc1ccc(-c2nc(C)cc(C)c2CNS(=O)(=O)c2ccccc2)cc1	639
COc1ccc(Nc2c(C(=O)N3CCCC(C)C3)cnc3nc(C)ccc23)cc1OC (centres undefined)	610
COc1ccc(-c2noc(-c3ncn4c3COC(c3ccc(F)cc3)C4)n2)cc1OC (centres undefined)	958
COc1ccc2c(C)c(CC(=O)N3CCC(C(N)=O)CC3)c(=O)oc2c1C	661
COc1ccc(-c2c(C)noc2NC(C)=O)cc1S(=O)(=O)N1CCCC1	673
O=C1COc2ccc(-c3csc(NC(=O)c4ccc(F)cc4)n3)cc2N1	838

SMILES	RP-LC retention time [s]
Cn1cc(C(=O)NC2CCCCCC2)c2nn(-c3ccccc3)c(=O)c-2c1	995
CCOCCOC1CCN(S(=O)(=O)c2cccc(OC)c2)CC1	881
CC(O)CCC(=O)NCCc1nc2ccccc2n1Cc1ccccc1F (centres undefined)	566
COc1ccc(NC(=O)C2CCCN(c3cnc4nccnc4c3)C2)cc1F (centres undefined)	726
COc1ccc(-c2nc3cnccn3c2NCCC(=O)Nc2ccc3c(c2)OCCO3)cc1	676
O=C(O)c1ccc(NCCCO)c([N+](=O)[O-])c1	587
CC(=O)c1ccc(NC(=O)CCn2nc(C)nc2C)cc1	557
CCC(=O)N1CCc2cc(C(=O)NCc3cccs3)ccc21	743
O=S(=O)(Nc1cccc(Cl)c1)c1ccc(-c2nnc(C3CCC3)o2)o1	967
CCC(=O)NCCc1csc(C2CCCN(C(=O)C3(c4ccccc4)CC3)C2)n1 (centres undefined)	736
CCCN(CC(=O)N(Cc1ccco1)CC1CCCO1)C(=O)Cc1ccc(F)cc1 (centres undefined)	872
O=C(NCc1ccccn1)C1=C2CCCN2c2ccc(F)cc2S1(=O)=O	1030
CCSc1nc(O)cc(=O)[nH]1	628
O=C(c1ccco1)N1CCCN(c2ccc(=O)n(-c3ccccc3)n2)CC1	684
COc1ccc(CC(=O)Nc2c(C(=O)N3CCN(c4ccccn4)CC3)oc3ccccc23)cc1	675
O=C1CCN(C(=O)C2CCN(C(=O)CC3CCCC3)CC2)CCCCCCN1	686
CC(C)CC(=O)NCCc1nc2cccnc2n1-c1ccccc1	661
O=C(c1cccnc1)N1CCC(Oc2cc(N3CCCCC3)ncn2)C1 (centres undefined)	651
O=C(Cn1ncc2c(N3CCN(c4ccccn4)CC3)ncnc21)Nc1ccccc1Br	608
CCN1c2ccc(C)cc2C(=O)NC12CCN(C(=O)c1ccc(C)cc1)CC2	849
Cc1ccc(-c2ncccc2CNS(=O)(=O)c2ccc(Br)s2)cc1	786
CCOc1ccccc1NC(=O)NCCn1c(C(F)(F)F)nc2cccnc21	799
Cc1cccc(CCNC(=O)c2cc3n(n2)CC(C)(C(=O)NCc2ccccc2)N(C)C3=O)c1 (centres undefined)	814

SMILES	RP-LC retention time [s]
O=C(CCn1cnc2cc(-c3noc(-c4cncc(Br)c4)n3)ccc21)N1CCCCC1	782
CCC(C)NC(=O)C1CCN(S(=O)(=O)c2c(C)nn(-c3ccc(C)cc3)c2C)CC1 (centres undefined)	683
Cc1ccc(Cn2c(N3CCCC(C(=O)NCc4ccccc4)C3)nc3ccsc3c2=O)cc1 (centres undefined)	958
COc1ccc(OC)c(NC(=O)Cn2cnc3nc4c(cc3c2=O)CCCC4)c1	676
Cc1cccc(S(=O)(=O)N2CCC(n3cnnc3C3CC3)CC2)c1	713
CCCCNC(=O)Cn1c(C)nc2onc(CC)c2c1=O	726
CCOc1ccccc1NC(=O)Cn1cnc2nc(N3CCCC(C(=O)NC)C3)sc2c1=O (centres undefined)	667
CCCS(=O)(=O)N1CCC(C2CCN(C(=O)NC)CC2)C1 (centres undefined)	659
Cc1ccc(S(=O)(=O)N2CCCC(Cn3cnc4cccnc43)C2)cc1F (centres undefined)	802
Cc1ccc2nc(-c3ccc(N4CCOCC4)cc3)c(Nc3ccc4c(c3)OCO4)n2c1	690
O=C(c1cc(=O)n2c(nc3ccccc32)s1)N1CCN(c2ccccn2)CC1	634
C[C@H](N)Cc1cccc(C(F)(F)F)c1	655
Cc1ccc(NC(=O)C2CCCN(c3nnc4cccc(C)n34)C2)cc1F (centres undefined)	753
Cc1nc(-c2ccc3c(c2)n(CC(=O)N2CCn4c2nc2ccccc24)c(=O)n3C(C)C)no1	832
COc1ccc(-c2nc(C)cc(C)c2CNC(=O)c2ccc(Br)o2)cc1	634
COc1cc(/C=C2\CCCN([C@@H](C)c3ccc(F)cc3)C2=O)ccc1-n1cnc(C)c1	834
CCc1ccc(Nc2nc(C(=O)NCCc3cnc[nH]3)nc3ccccc23)cc1	603
Cc1ccc(-c2nnc(Cc3nc(-c4ccc(F)c(F)c4)no3)o2)cc1F	1110
COc1ccc(-c2nnc(-c3cccnc3NCCCN3CCCC3=O)o2)cc1	746
CCOc1ccc(-c2cc3c(=O)n(Cc4nc(-c5ccccc5Cl)no4)ncn3n2)cc1	1150
